The values that follow come from patent publication US7781459B2, “Carboxyalkoxy-substituted acyl-carboxyphenylurea derivatives and their use as medicaments” (Sanofi-Aventis Deutschland GmbH, priority 2002, dated 2010).

For the assay, the system named is glycogenolysis in primary cultures of rat hepatocytes. Nature of the assay: Inhibitory potency on glycogenolysis in primary cultures of rat hepatocytes (glucagon-induced glucose production rate). In kind it is cell-based. The note with it: Hepatocyte. As for the experimental part:
Analysis of Test Substances for their Inhibitory Potency on Glycogenolysis in Primary Cultures of Rat Hepatocytes
Hepatocytes were isolated from the livers of fed rats (Sprague-Dawley or Wistar, bodyweight 220-240 g) by means of a standard 2-stage perfusion first with calcium-free buffer solution followed by perfusion with collagenase-containing solution to break up the tissue assembly (Seglen et al, 1979). The cells were incubated in an incubator with 90% humidity at 37° C. and an atmosphere with 5% CO2 in air. The cultivation normally took place with Williams' medium E supplemented with 20 mM glucose, 0.1 mM fructose, 1 μM dexamethasone and 100 nM insulin. Glycogenolysis was induced by changing the culture medium to prewarmed carbogen-gassed Krebs-Henseleit bicarbonate Hepes (20 mM) buffer, pH 7.4, supplemented with 100 nM glucagon (time 0 min). The test substances were normally added at time 0 min as 100× stock solution in DMSO. The final DMSO concentration was not higher than 1% (v/v). The amount of glucose in the culture supernatant was determined after addition of glucagon in the presence and absence of test substance by removing small aliquots of the cell culture supernatant at times 0, 30, 60 and 90 min. The glucose concentration (mM) was determined by enzymatic methods in a biochemical analysis laboratory of Aventis Pharma Deutschland. The glucose production rate was found by linear regression of the glucose concentration at times 30, 60 and 90 min using the following formula:
Glucose production rate (mM/h)=mM glucose (90 min)−mM glucose (30 min).
The percent inhibition was calculated using the following formula: […]
IC50 values (IC50: the concentration (μM) of test substance which brings about a reduction of 50% in the glucose production rate) was estimated by standard curve fitting methods using the percent inhibitions obtained at relevant concentrations of test substance.

[1] abbreviates: glycogenolysis induced with 100 nM glucagon, 50% reduction in glucose production rate, read-out: IC50 on hep.
The mark [2] stands for this setting: comparison examples from WO 01/94300, glucagon-induced glycogenolysis, read-out: IC50 nm hep.

A word on the IC50: it is the point on the concentration scale where inhibition reaches its midpoint.

Where two headings read alike, the source gives them in different places.

For `COC(=O)CCCOc1cc(C(=O)O)ccc1NC(=O)NC(=O)c1cc(F)c(F)cc1Cl` [Example 10, 4-[3-(2-Chloro-4,5-difluorobenzoyl)ureido]-3-(3-methoxycarbonylpropoxy)benzoic acid], the IC50 under setting [1] was determined as 0.106 µM.

Turning to `CC(=O)CCCCCOc1c(Cl)cc(NC(=O)NC(=O)c2ccc(F)cc2Cl)cc1Cl` [Example No. 105 from WO 01/94300, reference compound], the half-inhibitory concentration (IC50) under setting [2] was found to be 17.5 µM.

Turning to `O=C(O)COc1ccccc1NC(=O)NC(=O)c1ccc(F)cc1Cl` [Example 1, 2-[3-(2-Chloro-4-fluorobenzoyl)ureido]phenoxyacetic acid], under setting [1], the IC50 amounted to 1.16 µM.

With `O=C(O)COc1cc(C(=O)O)ccc1NC(=O)NC(=O)c1ccc(F)cc1Cl` [Example 2, 3-Carboxymethoxy-4-[3-(2-chloro-4-fluorobenzoyl)ureido]benzoic acid], the IC50 under setting [1] worked out at 1.46 µM.

For `CC(=O)CCCCCOc1ccc(NC(=O)NC(=O)c2ccc(Cl)cc2Cl)c(F)c1` [Example No. 116 from WO 01/94300, reference compound], the IC50 under setting [2] amounted to 13.5 µM.
